Data set [1] is described as follows: Ethylene oxide tolerance acclimatization: growth on medium plates with increasing ethylene oxide. Also on record: key: + normal growth; ± low growth. The conditions noted are these: Example 3, carbon source 100%. Here is the method: Ethylene oxide tolerance acclimatization medium plates were made as follows: Peptone 10 g, glucose 40 g, agar 15 g, pH adjusted to 5.4-5.8, and filled with distilled water to 1000 mL which was distributed into 250 mL. Sterilization was then performed at 121° C. for 20 min. The medium was heated to melt before use. When the temperature of the medium was cooled down to 50-56° C., 25 mg, 50 mg, 125 mg, and 200 mg of ethylene oxide was added, respectively, by using a sealed injection needle to obtain four ethylene oxide tolerance acclimatization medium plates containing different concentrations of ethylene oxide (100 mg/L, 200 mg/L, 500 mg/L, and 800 mg/L, respectively), named as ethylene oxide tolerance acclimatization medium plate A, ethylene oxide tolerance acclimatization medium plate B, ethylene oxide tolerance acclimatization medium plate C, and ethylene oxide tolerance acclimatization medium plate D, respectively.
(§1) The purified bacteria having a potential for degrading ethylene oxide were streak-inoculated on ethylene oxide tolerance acclimatization medium A, and cultured at a constant temperature of 37° C. for 48 h; a single colony having a largest radius was picked for further inoculation on ethylene oxide tolerance acclimatization medium B, and cultured at a constant temperature of 37° C. for 48 h; a single colony having a largest radius was picked for further inoculation on ethylene oxide tolerance acclimatization medium C, and cultured at a constant temperature of 37° C. for 48 h; a single colony having a largest radius was picked for further inoculation on ethylene oxide tolerance acclimatization medium D, and cultured at a constant temperature of 37° C. for 48 h, to obtain ethylene oxide-tolerant bacteria. Growth situation of the strains on the ethylene oxide tolerance acclimatization medium plates A, B, C, and D are as shown in Table 1.

Data set [2] in a line: Ethylene oxide degradation acclimatization: growth on 800 mg/L ethylene oxide plates with decreasing carbon source. The arrangement: key: + normal growth; ± low growth. Here is the method: Ethylene oxide degradation acclimatization medium plates were made as follows: Peptone 10 g, glucose (20 g, 12 g, 4 g, and 0 g, respectively), agar 15 g, pH adjusted to 5.4-5.8, and filled with distilled water to 1000 mL which was distributed into 250 mL. Sterilization was then performed at 121° C. for 20 min. The medium was heated to melt before use. When the temperature of the medium was cooled down to 50-56° C., 200 mg of ethylene oxide was added by using a sealed injection needle to obtain four ethylene oxide degradation acclimatization medium plates containing different concentrations of carbon source (50%, 30%, 10%, 0%, respectively), named as ethylene oxide degradation acclimatization medium plate A, ethylene oxide degradation acclimatization medium plate B, ethylene oxide degradation acclimatization medium plate C, and ethylene oxide degradation acclimatization medium plate D, respectively.
as §1, with “The ethylene oxide-tolerant” for “The purified”, “bacteria” for “bacteria having a potential for degrading ethylene oxide”, “on Ethylene Oxide Degradation Acclimatization” for “on ethylene oxide tolerance acclimatization”, “48 h; a single colony having a largest radius was picked and preserved on an agar medium bevel containing corresponding nutritional components in Ethylene Oxide Degradation Acclimatization medium D,” for “48 h,”, “ethylene oxide-degrading strains.” for “ethylene oxide-tolerant bacteria.”, “oxide degradation” for “oxide tolerance”

Data set [3] can be described thus: Comparative experiment for the degradation of ethylene oxide (gas chromatography). The settings on record: Example 3. As to the method: The bacteria having a potential for degrading ethylene oxide which have not been subjected to the acclimatization steps and the strains capable of tolerating and degrading ethylene oxide obtained after the acclimatization steps were inoculated into activation medium, respectively, for activation, and cultured to a bacteria concentration of 10^10-10^12 cfu/mL in the culture.
The activation medium was made as follows: Peptone 10 g, filled with distilled water to 1000 mL which was distributed into 400 mL. Then, sterilization was performed at 121° C. for 20 min. Thereafter, the temperature of the medium was cooled down to RT for storage. 160 mg and 320 mg of ethylene oxide was added, respectively, by using a sealed syringe to obtain two activation media containing different concentrations (400 mg/L and 800 mg/L, respectively) of ethylene oxide for the test of degrading capability of the ethylene oxide-degrading strains.
Comparative experiment for the degradation of ethylene oxide was performed with the following test groups and control group.
Test group 1: 5 mL of an activation culture of the bacteria capable of tolerating and degrading ethylene oxide was inoculated into 400 mL of activation media containing 400 mg/L (1A) and 800 mg/L (1B), respectively, of ethylene oxide. The amount of live bacteria in the medium was 10^8-10^10 cfu/mL.
Test group 2: 5 mL of an activation culture of the bacteria having a potential for degrading ethylene oxide which have not been subjected to the acclimatization steps was inoculated into 400 mL of activation media containing 400 mg/L (2A) and 800 mg/L (2B), respectively, of ethylene oxide. The amount of live bacteria in the medium was 10^8-10^10 cfu/mL.
Control group: 400 mL of activation media containing 400 mg/L (control group A) and 800 mg/L (control group B), respectively, of ethylene oxide with no bacteria strain inoculated.
The test groups and control groups are placed together in an incubated for culturing at 37° C. for 48 h. […] The result of degradation was detected by gas chromatography. […]
the subject samples to be analyzed were prepared by diluting samples from the treatment and control groups 5 times with deionized water;
after the GC instrument is stabilized and under the same conditions, 2 μL each of the ethylene oxide standards and the diluted samples to be analyzed were injected into the GC instrument, wherein each sample was measured twice in parallel;
qualitive determination was conducted according to the retention time and quantitative calculation on each peak area was performed to take the average value; […]
the degradation rate of ethylene oxide for each sample was calculated according to the following formula: Degradation Rate (%)=(Control Group Concentration−Treatment Group Concentration)/Control Group Concentration×100. […]

Consider Lactobacillus, for which, in data set [1] (EO 100 mg/L), the “Growth, C (100%)/EO(mg/L) 100” value is reported as “+”. In data set [1] (EO 200 mg/L), the “Growth, C (100%)/EO(mg/L) 200” value is recorded as “+”. Moreover, in data set [1] (EO 500 mg/L), the “Growth, C (100%)/EO(mg/L) 500” value is listed as “+”. In addition, the “Growth, C (100%)/EO(mg/L) 800” value in data set [1] (EO 800 mg/L) is “+”. The “Growth, EO (800 mg/L)/ C (%) 0 %” value in data set [2] (Example 3, carbon source 0%) was “+”. For the same substance, the “Growth, EO (800 mg/L)/ C (%) 10 %” value in data set [2] (Example 3, carbon source 10%) is “+”. In data set [2] (Example 3, carbon source 30%), the “Growth, EO (800 mg/L)/ C (%) 30 %” value is on record as “+”. The “Growth, EO (800 mg/L)/ C (%) 50 %” value in data set [2] (Example 3, carbon source 50%) is given as “+”. Further, the “EO (400 mg/L)/C (0%) Degradation rate (%) After Acc.” value in data set [3] (EO 400 mg/L, strain after acclimatization) is on record as 75.96%. For the same substance, the “EO (400 mg/L)/C (0%) Degradation rate (%) Before Acc.” value in data set [3] (EO 400 mg/L, strain before acclimatization) turned out to be 17.32%. The “EO (800 mg/L)/C (0%) Degradation rate (%) After Acc.” value in data set [3] (EO 800 mg/L, strain after acclimatization) was determined as 64.83%. The “EO (800 mg/L)/C (0%) Degradation rate (%) Before Acc.” value in data set [3] (EO 800 mg/L, strain before acclimatization) turned out to be 6.89%.

The values are drawn from US11085016B1, “Method for screening bacteria capable of degrading ethylene oxide” (priority 2020, dated 2021).
